Reference: EP2719375A1, “Cannabinoids for the treatment of cancers dependent on hedgehog mechanisms” (Max-Planck-Gesellschaft zur Förderung der Wissenschaften …, priority 2012, dated 2014)
“Also recorded” adds a separate entry of the source. Like-named read-outs stand apart in the source and are kept apart here.

Legend:
[1] = system: Shh signaling in ShhLIGHT2 cells; test: ShhLIGHT2 signaling assay (Gli-responsive Firefly:Renilla luciferase ratio); type: cell-based, mammalian; details: for effect on signaling in ShhLIGHT2 cells (pure compounds, column fractions): cells stimulated with non-lipoprotein-associated Shh; for inhibits Shh signaling: at 30µM
Description: HeLa cells were passaged in DMEM with 10% fetal bovine serum (FBS, Gibco), 50 U/ml penicillin and 50µg/ml streptomycin (Gibco). To prepare non-lipoprotein-associated Shh, HeLa cells were transfected with plasmids encoding human Shh using polyethylenimine (Polysciences) in OptiMem (Invitrogen), then switched Shh-transfected HeLa cells to serum-free media (DMEM +1% Insulin-Transferrin-Selenium mixture (ITS-X, Gibco) 4 h post transfection. After 48 h, conditioned media were centrifuged at 1000 g for 20 min and concentrated using Amicon Ultra -10K (Millipore) for use in the signaling assay. Identically treated media from nontransfected HeLa cells were used as controls.
Shh-LIGHT2 cells (Taipale et al., 2000) were maintained in DMEM + 10% FBS, 150 µg/ml zeocin (Invitrogen) and 400 µg/ml G418 (Invitrogen). 24 h prior to assay, cells were plated at […] in 96-well plates. Cells were then switched to a serum-free medium consisting of DMEM + 1% ITS-X, and supplemented with combinations of Shh and different lipids. Lipids were added in DMSO. Luciferase activity was assayed in cell lysates after 24 h, as instructed by the manufacturer (Dual Glo Luciferase Assay, Promega).

Ci155 = test: Drosophila wing disc assay, Ci155 staining; details: LppRNAi wing discs, DOPC liposomes, 2 hours
Description: (§1) Imaginal discs were fixed and stained as previously described (Marois et al., 2006). Antibodies were diluted as follows: anti-Ci 2A1 1:10 (Wang and Holmgren, Development, 126(22): p. 5097-106 (1999)), anti-Smo 1:50 (Lum et al., Mol Cell, 12(5): p. 1261-74 (2003)).
(§2) All quantified immunostaining was performed on discs that were dissected, fixed, stained and imaged in parallel using the same microscope settings. To quantify Ci155 and Smo staining intensities, three apical sections 0.7 µm apart were projected using maximal intensity in ImageJ. For each image, two rectangles of 100 pixels parallel to the A/P axis by 351 pixels parallel to the D/V axis were selected and centered at the A/P boundary in ventral and dorsal compartments. Average pixel intensity was determined as a function of distance from A/P boundary using PlotProfile and plotted using Microsoft Excel. All A/P boundaries were determined according to anti-Ci155 coimmunostaining. To estimate the significance of changes in staining intensities in discs of different genotypes, we measured Smo or Ci staining intensity at the same distance from the A/P boundary in each disc and calculated p values using Excel.
(§3) The assay was performed as previously described (Khaliullina et al., Development, 136(24): p. 4111-21 (2009)). Endocannabinoids were applied in DOPC vesicles at concentrations of up to 200µM.

Smo = molecular target: T1, Smo (Drosophila melanogaster, UniProt P91682); test: Drosophila wing disc assay, Smo staining; details: for ectopic Smo accumulation / stabilization: LppRNAi wing discs, DOPC liposomes, 2 hours; for effects on Hh signaling in Drosophila: wing discs, judged from Smo and Ci155 accumulation
T1 construct: from tissue; host or cells: explanted wing imaginal discs from wild type and LppRNAi Drosophila larvae
T1 sequence (P91682 32-1036): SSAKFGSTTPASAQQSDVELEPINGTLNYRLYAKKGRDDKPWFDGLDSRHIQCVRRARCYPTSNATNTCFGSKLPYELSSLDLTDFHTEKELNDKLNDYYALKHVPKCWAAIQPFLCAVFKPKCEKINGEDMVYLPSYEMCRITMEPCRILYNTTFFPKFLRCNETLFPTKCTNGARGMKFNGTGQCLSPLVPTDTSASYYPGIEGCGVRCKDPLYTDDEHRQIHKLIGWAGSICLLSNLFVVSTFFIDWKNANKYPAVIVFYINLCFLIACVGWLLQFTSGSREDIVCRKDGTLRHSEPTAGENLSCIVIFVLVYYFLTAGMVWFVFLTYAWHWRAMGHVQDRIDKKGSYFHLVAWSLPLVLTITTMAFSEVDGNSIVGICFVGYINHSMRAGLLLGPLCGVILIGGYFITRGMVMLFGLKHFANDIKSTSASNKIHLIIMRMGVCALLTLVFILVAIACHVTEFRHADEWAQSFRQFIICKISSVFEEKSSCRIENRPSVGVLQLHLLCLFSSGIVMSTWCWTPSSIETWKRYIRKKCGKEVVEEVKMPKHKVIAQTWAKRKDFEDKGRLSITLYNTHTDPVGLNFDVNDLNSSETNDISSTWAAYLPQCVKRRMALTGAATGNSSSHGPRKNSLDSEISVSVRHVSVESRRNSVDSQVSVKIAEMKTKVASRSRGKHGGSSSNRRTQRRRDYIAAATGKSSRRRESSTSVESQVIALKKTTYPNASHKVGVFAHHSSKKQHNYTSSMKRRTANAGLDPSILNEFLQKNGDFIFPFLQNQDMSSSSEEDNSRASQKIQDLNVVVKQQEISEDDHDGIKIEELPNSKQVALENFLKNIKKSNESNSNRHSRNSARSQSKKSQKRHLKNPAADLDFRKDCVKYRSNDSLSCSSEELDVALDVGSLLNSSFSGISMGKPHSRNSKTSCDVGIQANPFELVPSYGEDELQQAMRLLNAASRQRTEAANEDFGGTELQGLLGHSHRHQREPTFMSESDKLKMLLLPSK
Description: as §1, §2, §3

[2] = Shh Light2, 24 h, read-out: EC50 (inhibits Shh signaling)
[3] = Shh Light2, ShhLIGHT2 cells stimulated with Shh, serum-free medium, lipid added in DMSO, luciferase after 24 h, read-out: EC50 (inhibits Shh signaling)

**Q.** What does the source list for `CCCCCCCCCCCCCCCC(=O)NC(CO)C(=O)O` (centres unmarked) [N-acyl serine (16:0)]?
**A.** EC50 ([1]; Shh Light2, ShhLIGHT2 cells stimulated with Shh, serum-free medium, lipid added in DMSO, read-out: EC50 (increases Shh signaling)): 0.5 µM; increases Shh signaling by ([1]; Shh-induced Firefly:Renilla increase normalized to 100): 40%; effect on signaling in ShhLIGHT2 cells (pure compounds, column fractions) [1]: stimulated signaling; ectopic Ci155 accumulation (Ci155): no activity; ectopic Smo accumulation / stabilization (Smo): no activity

**Q.** Which results are given for `CCCCCCCCCCCCCCCCCC(=O)NCCc1ccc(O)c(O)c1` [N-acyl dopamine (18:0)]?
**A.** EC50 [1, 2]: 5 µM; inhibition at 30 µM ([1]; Shh Light2, read-out: inhibits Shh signaling by): 80%

**Q.** With `CCCCCCCCCCCCCCCCCC(=O)NCCO` [N-acylethanolamide (18:0)] as the compound, how does the “ectopic Ci155 accumulation” value (Ci155) read?
**A.** Its value is “not decreased”.

**Q.** And the “ectopic Smo accumulation / stabilization” value (Smo)?
**A.** The value was “not decreased”.

**Q.** With `CCCCCCCCCCCCCCCC(=O)NCCO` [N-acylethanolamide (16:0)] as the compound, how does the “ectopic Ci155 accumulation” value (Ci155) read?
**A.** The value was “partially reverses Ci155 accumulation; also recorded: significantly reverses ectopic accumulation of Ci155”.

**Q.** And the “ectopic Smo accumulation / stabilization” value (Smo)?
**A.** Its value is “reverses ectopic Smo stabilization; also recorded: completely reverses ectopic accumulation of Smo”.

**Q.** And the “effects on Hh signaling in Drosophila” value (Smo)?
**A.** The value was “strong negative effects”.

**Q.** Which “EC50 decreased by addition of FAAH inhibitor” value [1] does the source give for `CCCCC/C=C\C/C=C\CCCCCCCC(=O)NCCO` [N-acylethanolamide (18:2), linoleylethanolamide] here?
**A.** The value was over 10 fold.

**Q.** And the “EC50 decreased by pre-incubation with lipoproteins” value [1]?
**A.** Its value is over 10 fold.

**Q.** What about the EC50 [1, 2] of the same compound?
**A.** The EC50 was about 15 µM.

**Q.** And the EC50 ([1]; Shh Light2, in presence of PF-3845, a selective FAAH inhibitor, read-out: EC50)?
**A.** Its EC50 is 0.5 µM.

**Q.** What about the “inhibits Shh signaling” value [1] of the same compound?
**A.** The value was “almost completely”.

**Q.** What about the “EC50 decreased by pre-incubation with lipoproteins” value ([1]; pre-incubated with lipoproteins versus added in DMSO without prior incubation) of the same compound?
**A.** Its value is “more than 10 fold”.

**Q.** Which “effect on signaling in ShhLIGHT2 cells (pure compounds, column fractions)” value [1] does the source give for `C=C1CC[C@H](O)C/C1=C/C=C1\CCC[C@]2(C)[C@@H]([C@H](C)CCCC(C)C)CC[C@@H]12` [vitamin D3, reference compound] here?
**A.** Its value is “inhibited signaling”.

**Q.** What about the “ectopic Smo accumulation / stabilization” value (Smo) of the same compound?
**A.** The value was “neither reversed Smo accumulation”.

**Q.** Which results are given for `CCCCCCCC/C=C\CCCCCCCC(=O)NCCO` [N-acylethanolamide (18:1)]?
**A.** ectopic Ci155 accumulation (Ci155): not decreased; ectopic Smo accumulation / stabilization (Smo): not decreased

**Q.** For `C=C(C)[C@@H]1CCC(C)=C[C@H]1c1c(O)cc(CCCCC)cc1O` [cannabidiol], which EC50 [1, 3] is on record?
**A.** Its EC50 is under 1 µM.

**Q.** `CCCCCCCCCCCCCCCC(=O)NCCc1ccc(O)c(O)c1` [N-acyl dopamine (16:0)] was tested. Which “ectopic Ci155 accumulation” value (Ci155) did it give?
**A.** Its value is “no activity”.

**Q.** And the “ectopic Smo accumulation / stabilization” value (Smo)?
**A.** Its value is “no activity”.

**Q.** What does the source list for `CCCCC/C=C\C/C=C\C/C=C\C/C=C\CCCC(=O)NCCO` [N-acylethanolamide (20:4), arachidonyl ethanolamide]?
**A.** ectopic Ci155 accumulation (Ci155): not decreased; ectopic Smo accumulation / stabilization (Smo): not decreased

**Q.** For `CCCCC/C=C\C/C=C\C/C=C\C/C=C\CCCCOC(CO)CO` [2-glyceryl ether (20:4), 2-arachidonyl glyceryl ether], which EC50 [1, 3] is on record?
**A.** The EC50 was 15 µM.

**Q.** And the “inhibits Shh signaling” value [1]?
**A.** The value was “almost completely”.

**Q.** And the “ectopic Ci155 accumulation” value (Ci155)?
**A.** The value was “no activity”.

**Q.** And the “ectopic Smo accumulation / stabilization” value (Smo)?
**A.** The value was “no activity”.

**Q.** And the “effects on Hh signaling in Drosophila” value (Smo)?
**A.** The value was “complete inactivity”.

**Q.** `CC(C)CCC[C@@H](C)[C@H]1CC[C@H]2C3=CC=C4C[C@@H](O)CC[C@]4(C)[C@H]3CC[C@]12C` [7-dehydrocholesterol, reference compound] was tested. Which “effect on signaling in ShhLIGHT2 cells (pure compounds, column fractions)” value [1] did it give?
**A.** The value was “inhibited signaling”.

**Q.** What about the “ectopic Smo accumulation / stabilization” value (Smo) of the same compound?
**A.** Its value is “neither reversed Smo accumulation”.

**Q.** Which EC50 [1, 3] does the source give for `CCCCCc1cc(O)c2c(c1)OC(C)(C)c1ccc(C)cc1-2` [cannabinol] here?
**A.** Its EC50 is under 1 µM.
